Entries after “also recorded” stand apart in the source; their conditions may differ. Like-named read-outs stand apart in the source and are kept apart here.

We go through six compounds from patent US7833331B2, “Non-toxic corrosion-protection pigments based on cobalt” (University of Dayton, priority 2007, dated 2010).

The test in a line: Accelerated corrosion testing (both ASTM B-117 and G-85.5) of PVB wash primers, overall observation. Here is the method: The corrosion inhibiting performance of CoIII pigments was evaluated by incorporating them into primer paint formulations. […] The wash primer is composed of a resin, an acid, a corrosion inhibiting pigment, powdered talc, and carbon lampblack. The acid content of this wash primer provides a rigorous initial test of the stability and performance of the pigments. Other, more benign, polymer-based binder and resin systems might not separate the compounds based on their performance as effectively or as rapidly.
PVB was used exclusively throughout testing to avoid preparation and compositional complications during analysis of pigment performance. However, the invention is not limited to the use of PVB.
A small amount (0.2 g) of powdered talc (magnesium silicate) “filler” was added. Lampblack was not added to these samples. These components were mixed thoroughly by hand and 3.8 g of phosphoric acid diluent added with further mixing. This rough processing allowed direct comparisons of pigment performance to be made without complications due to powder treatments, modifications, and additives.
This is not the conventional paint application procedure for aluminum alloys. Under normal service conditions, aluminum alloys are first subjected to a hexavalent chromium-containing conversion coating prior to primer application. However, the conversion coating was omitted so that the performance of the pigment alone could be evaluated and not the synergistic effects of hexavalent chromium (in the conversion coating) or even of barrier films (in the phosphate or anodized coatings).
This accelerated corrosion test exposes samples to a constant salt-water fog and is a de facto test of solubility for corrosion inhibitors. […] This accelerated corrosion test exposes samples to a cycle of fog of dilute salt and ammonium sulfate at room temperature followed by forced-air drying at an elevated temperature.
Chromate pigments were precipitated from aqueous synthesis solutions and incorporated into PVB wash primer formulations so that each primer sample had the same molar quantity of hexavalent chromium. […] After the samples had dried for 24 hours, they were scribed and the edges of each sample taped to eliminate edge effects.
Wash primer coatings containing these pigments were prepared wherein the trivalent cobalt was present in identical molar concentrations from sample to sample. […] Pigments were made with chloride, bromide, sulfate, hexafluorosilicate, phosphate, molybdate, tungstate, and phosphomolybdate anions. Additionally, […] was also used as a pigment for this application.

Setting [1] is: 135 hours of both ASTM B-117 and G-85.5, identical molar concentrations of trivalent cobalt, 2024-T3 and 7075-T6.

As for `N.N.N.N.N.N.N.N.N.N.N.N.[Co+3].[Co+3].[O]=[Mo](=[O])([O-])[O-].[O]=[Mo](=[O])([O-])[O-].[O]=[Mo](=[O])([O-])[O-]` [hexaaminecobalt(III) molybdate], the “corrosion resistance of trivalent cobalt pigments in PVB wash primer” value (shortened to “corrosion resistance”) is recorded as “a small amount of corrosion resistance; also recorded: performed the best of these three pigment compounds”.

Regarding `[O]=[Co][O][Co]=[O]` [CO2O3, Co2O3, reference compound], the “corrosion resistance” value under setting [1] is “no discernable corrosion resistance at all”.

For hexaaminecobalt(III) phosphomolybdate, the “corrosion resistance” value under setting [1] is on record as “a small amount of corrosion resistance; also recorded: performed the worst”.

As for `F[Si-2](F)(F)(F)(F)F.F[Si-2](F)(F)(F)(F)F.F[Si-2](F)(F)(F)(F)F.N.N.N.N.N.N.N.N.N.N.N.N.[Co+3].[Co+3]` [hexaaminecobalt(III) hexafluorosilicate], under setting [1], the “corrosion resistance” value is “performed the best of all”.

With `N.N.N.N.N.N.[Cl-].[Cl-].[Cl-].[Co+3]` [hexaaminecobalt(III) chloride], the “corrosion resistance” value is “performed very well in the early stages of the test and then failed as the test progressed”.

`N.N.N.N.N.N.N.N.N.N.N.N.[Co+3].[Co+3].[O]=[W](=[O])([O-])[O-].[O]=[W](=[O])([O-])[O-].[O]=[W](=[O])([O-])[O-]` [hexaaminecobalt(III) tungstate]: the “corrosion resistance” value is listed as “a small amount of corrosion resistance”.
